From patent US20230257351A1, “SUBSTITUTED N-[…] HAVING P2X4 RECEPTOR ANTAGONISTIC ACTIVITY” (Bayer Aktiengesellschaft, priority 2020, published 2023)

How the values were obtained:
[1] = test system: intraplantar Complete Freund's Adjuvant (CFA)-induced acute inflammatory pain; experiment: CFA Inflammation Model in Rats with Pain Behaviour Read Out; assay type: in vivo, male Sprague Dawley rats; conditions: for PWT 2 hour-post drug / PWT 4 hour-post drug: mean PWT
Method: Compound was tested in the model of intraplantar Complete Freund's Adjuvant (CFA)-induced acute (48-hours setting) inflammatory pain in male Sprague Dawley rats. Briefly, 25 μl of CFA at 1 mg/ml was injected into the plantar surface of one hind paw. Mechanical hyperalgesia was measured using the Pressure Application Measurement apparatus (Ugo Basile, Gemonio, Italy). A linearly increasing pressure was applied to an area of approximately 50 mm^2 of the plantar side of the hind paw until a behavioural response (paw withdrawal) was observed or until the pressure reached 1000 grams of force (gf). The pressure at which the behavioural response occurred was recorded as the “Paw Withdrawal Threshold” (PWT). Both CFA-injected and contralateral PWTs were determined for each rat, in each treatment group and at each time point of the studies. The measurements were performed blinded. […] Compound or vehicle (10% DMSO, 40% Solutol, 50% water for injection, vol/vol) were dosed via oral route (p.o.) once daily (QD) or twice daily (BID) during 3 days, starting before CFA injection. Data were expressed as the mean PWT for each treatment group and at each time point. PWT data were analysed by performing a two way ANOVA with repeated measures (time×treatment). Planned comparison of means (each versus vehicle) was performed by using a Dunnett's post hoc test, provided that a main effect was detected. For p values less than 0.05, the results were deemed to be statistically significant.

rat P2X4 = biological target: T1, rat P2X4 (Rattus norvegicus, UniProt P51577); experiment: FLIPR Method for Rat P2X4 1321N1 Astrocytoma Cells; assay type: cell-based; conditions: 1321N1 stably expressing rat P2X4; agonist MgATP 5 μM (EC80)
T1 construct: expressed in transfected cells
T1 sequence (P51577 1-388): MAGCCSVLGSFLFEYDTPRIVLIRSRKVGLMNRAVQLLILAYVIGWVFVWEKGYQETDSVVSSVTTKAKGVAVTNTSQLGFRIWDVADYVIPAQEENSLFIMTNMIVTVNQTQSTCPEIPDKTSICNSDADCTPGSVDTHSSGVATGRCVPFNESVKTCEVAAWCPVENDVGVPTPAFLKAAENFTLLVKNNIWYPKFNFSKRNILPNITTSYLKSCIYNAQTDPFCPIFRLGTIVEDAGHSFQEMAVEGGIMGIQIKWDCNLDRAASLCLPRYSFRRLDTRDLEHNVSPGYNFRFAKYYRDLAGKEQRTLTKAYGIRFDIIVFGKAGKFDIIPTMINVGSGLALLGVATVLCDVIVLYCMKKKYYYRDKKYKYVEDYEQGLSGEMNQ
In short: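 1321N1 cells stably expressing rat P2X4, Fluo8-AM loaded; compounds (25 μM to 1 nM final, ten concentrations) preincubated 30 min at room temperature, then MgATP added at 5 μM (EC80). Calcium fluorescence read on FLIPR before and after agonist; triplicate data normalized to agonist control, four-parameter fit gives IC50.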

human P2X4 = biological target: T2, human P2X4 (Homo sapiens, UniProt Q99571); experiment: Human P2X4 HEK Cell FLIPR Assay; assay type: cell-based; conditions: HEK293 stably expressing human P2X4, agonist Bz-ATP 3 μM (EC80); for IC50: read-out: Human P2X4 HEK Cells (FLIPR Assay) avg IC50
T2 construct: expressed in transfected cells
T2 sequence (Q99571 1-388): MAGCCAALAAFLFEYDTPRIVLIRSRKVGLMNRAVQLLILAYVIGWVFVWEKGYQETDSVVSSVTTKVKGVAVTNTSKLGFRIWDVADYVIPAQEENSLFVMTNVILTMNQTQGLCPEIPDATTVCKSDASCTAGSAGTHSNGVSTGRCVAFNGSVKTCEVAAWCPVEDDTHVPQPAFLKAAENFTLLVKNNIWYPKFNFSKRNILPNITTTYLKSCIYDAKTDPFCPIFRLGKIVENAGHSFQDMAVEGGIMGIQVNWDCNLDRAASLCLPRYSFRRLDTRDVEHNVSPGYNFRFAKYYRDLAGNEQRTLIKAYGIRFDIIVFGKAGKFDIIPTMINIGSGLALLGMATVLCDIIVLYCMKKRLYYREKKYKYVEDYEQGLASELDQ
In short: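 Compounds were preincubated 30 min at room temperature on Fluo8-AM-loaded HEK293 cells stably expressing human P2X4. The response was the calcium fluorescence rise on Bz-ATP addition.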

[2] = test system: neuropathic mechanical allodynia induced by CCI surgery; experiment: Chronic Constriction Injury (CCI) Neuropathic Pain Model in Rats with Pain Behavior Read Out; assay type: in vivo, male Sprague-Dawley rats; conditions: rat CCI; von Frey; gabapentin 100 mg/kg SID on days 0, 2, 5, 9; all post-dose time points
Method: Aim of the study was to test the efficacy of example 68 at ameliorating neuropathic mechanical allodynia. Male Sprague-Dawley rats were subject to chronic constriction injury of the sciatic nerve to induce neuropathic pain. Of those rats, 10 per group were assigned to treatment conditions involving BID drug administration for 10 days and behavioral assessment of mechanical sensitivity for allodynia with von Frey testing (vF). Behavior was assessed pre- and postdosing on Days 0, 2, 5, and 9. Rats were treated with Vehicle or test article BID on days 0 through 9, and rats in the gabapentin treatment group received gabapentin SID on days 0, 2, 5, and 9 in conjunction with behavioral assessment.
As vehicle Solutol/DMSO/WFI (40/10/50) was employed. Application volume for the per oral administration was 10 ml/kg.
Neuropathy was induced in male Sprague-Dawley rats by tying four loose ligatures of chromic gut around the common sciatic nerve in deeply anesthetized rats like described in Bennett, G. J., and Y. K. Xie. “A Peripheral Mononeuropathy in Rat That Produces Disorders of Pain Sensation like Those Seen in Man.” Pain 33 (1988): 87-107.
Mechanical allodynia was measured using 8 Semmes-Weinstein filaments (Stoelting©; Wood Dale, Ill., USA) with varying stiffness (0.4, 0.6, 1.0, 2.0, 4.0, 6.0, 8.0, and 15 g) according to the up-down method1. Animals were placed in individual acrylic chambers on a metal mesh surface and allowed to acclimate to their surroundings for a minimum of 15 minutes before testing. Each filament was presented perpendicular to the plantar surface with sufficient force to cause slight buckling against the paw and held for approximately 6 seconds or until a positive response is noted (paw sharply withdrawn).
Testing was initiated with the 2.0 g filament. In the absence of a paw withdrawal response, the next stronger stimulus was presented. In the event of paw withdrawal, the next weaker stimulus was used. […]
The 50% response threshold is calculated using the formula: […]

[3] = rat CFA, 50 mg/kg QD p.o. during 3 days
[4] = rat CFA, 100 mg/kg QD p.o. during 3 days

| SMILES | PWT 2 hour-post drug [1, 3] [gf] | PWT 4 hour-post drug [1, 3] [gf] | PWT 2 hour-post drug [1, 4] [gf] | PWT 4 hour-post drug [1, 4] [gf] | pain after treatment ([1]; rat CFA, 50 and 100 mg/kg doses QD, 2 and 4 hours after last administration) | development of inflammatory pain after the injection of CFA ([1]; rat, oral administration QD during 3 days) | IC50 (rat P2X4) [nM] | Rat P2X4 1321N1 Astrocytoma Cells (FLIPR Assay) avg Efficacy (rat P2X4) [%] | Human P2X4 HEK Cells (FLIPR Assay) avg Efficacy (human P2X4) [%] | IC50 (human P2X4) [nM] | paw withdrawal thresholds [2] |
| --- | --- | --- | --- | --- | --- | --- | --- | --- | --- | --- | --- |
| CC(=O)N(c1ccc(F)cc1)c1cc(NC(=O)Cc2cccc(F)c2Cl)ccn1 [Example 2, N-{4-[2-(2-chloro-3-fluorophenyl)acetamido]pyridin-2-yl}-N-(4-fluorophenyl)acetamide] | 727 | 688 | 763 | 839 | significantly reduced pain | prevented the development of inflammatory pain | 358 | 95 | 97 | 212 | – |
| CC(=O)N(c1cccc(Cl)c1)c1cc(NC(=O)Cc2c(F)cccc2Cl)ccn1 [Example 135, N-{4-[2-(2-chloro-6-fluorophenyl)acetamido]pyridin-2-yl}-N-(3-chlorophenyl)acetamide] | – | – | – | – | – | – | 264 | 96 | 99 | 281 | – |
| CCCC(=O)N(c1ccc(F)cc1)c1cc(NC(=O)Cc2ccc(F)cc2Cl)ccn1 [Example 141, N-{4-[2-(2-chloro-4-fluorophenyl)acetamido]pyridin-2-yl}-N-(4-fluorophenyl)butanamide] | – | – | – | – | – | – | 726 | 100 | 99 | 891 | – |
| CCCC(=O)N(c1ccc(F)cc1)c1cc(NC(=O)Cc2c(F)cccc2Cl)ccn1 [Example 142, N-{4-[2-(2-chloro-6-fluorophenyl)acetamido]pyridin-2-yl}-N-(4-fluorophenyl)butanamide] | – | – | – | – | – | – | 767 | 98 | 86 | 796 | – |
| CCCC(=O)N(c1ccc(F)cc1)c1cc(NC(=O)Cc2ccccc2Cl)ccn1 [Example 143, N-{4-[2-(2-chlorophenyl)acetamido]pyridin-2-yl}-N-(4-fluorophenyl)butanamide] | – | – | – | – | – | – | 934 | 101 | 94 | 723 | – |
| CCCC(=O)N(c1ccc(F)cc1)c1cc(NC(=O)Cc2c(Cl)cccc2Cl)ccn1 [Example 144, N-{4-[2-(2,6-dichlorophenyl)acetamido]pyridin-2-yl}-N-(4-fluorophenyl)butanamide] | – | – | – | – | – | – | 557 | 100 | 90 | 648 | – |
| NCC1(CC(=O)O)CCCCC1 [Gabapentin, gabapentin, reference compound] | – | – | – | – | – | – | – | – | – | – | significantly increased paw withdrawal thresholds |
